Read-outs that look alike come from different tables or passages of the source.

Common to all, as to format: cell-based
One assay has as its target T1, PPAR-delta (Homo sapiens, UniProt Q03181).
T1 construct: expressed in transfected cells; host or cells: CV-1 cells
T1 sequence (Q03181 211-439 limits assumed): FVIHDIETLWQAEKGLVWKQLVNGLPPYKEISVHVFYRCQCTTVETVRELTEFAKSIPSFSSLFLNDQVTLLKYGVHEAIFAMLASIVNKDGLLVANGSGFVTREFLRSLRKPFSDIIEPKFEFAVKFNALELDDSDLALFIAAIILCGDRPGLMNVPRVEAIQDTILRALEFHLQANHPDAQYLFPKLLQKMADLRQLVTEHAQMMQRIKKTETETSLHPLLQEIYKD
The assay is described as follows: human PPAR-GAL4 chimera luciferase reporter assay in CV-1 cells, PPAR-delta. As for the experimental part:
(§1) The compounds were evaluated in a cell-based assay to determine their human PPAR activity. The plasmids for human PPAR-GAL4 chimeras were prepared by fusing amplified cDNAs encoding the LBDs of PPARs to the C-terminal end of the yeast GAL4 DNA binding domain. CV-1 cells were grown and transiently transected with PerFectin (GTS, San Diego, Calif.) according to the manufacturer's protocol along with a luciferase reporter. Eight hours after transfection, 50 μl of cells were replated into 384 well plates ([…]). Sixteen hours after replating, cells were treated with either compounds or 1% DMSO for 24 hours. Luciferase activity was then assayed with Britelite (Perkin Elmer) following the manufacturer's protocol and measured with either the Perkin Elmer Viewlux or Molecular Devices Acquest.
(§2) Compounds may be screened for functional potency in transient transfection assays in CV-1 cells for their ability to activate the PPAR subtypes (transactivation assay). A previously established chimeric receptor system was utilized to allow comparison of the relative transcriptional activity of the receptor subtypes on the same synthetic response element and to prevent endogenous receptor activation from complicating the interpretation of results. See, for example, Lehmann, J. M.; Moore, L. B.; Smith-Oliver, T. A; Wilkinson, W. O.; Willson, T. M.; Kliewer, S. A., An antidiabetic thiazolidinedione is a high affinity ligand for peroxisome proliferator-activated receptory γ (PPARγ), J. Biol. Chem., 1995, 270, 12953-6. The ligand binding domains for murine and human PPAR-alpha, PPAR-gamma, and PPAR-delta are each fused to the yeast transcription factor GAL4 DNA binding domain. CV-1 cells were transiently transfected with expression vectors for the respective PPAR chimera along with a reporter construct containing four or five copies of the GAL4 DNA binding site driving expression of luciferase. After 8-16 h, the cells are replated into multi-well assay plates and the media is exchanged to phenol-red free DME medium supplemented with 5% delipidated calf serum. 4 hours after replating, cells were treated with either compounds or 1% DMSO for 20-24 hours. Luciferase activity was then assayed with Britelite (Perkin Elmer) following the manufacturer's protocol and measured with either the Perkin Elmer Viewlux or Molecular Devices Acquest (see, for example, Kliewer, S. A., et. al. Cell 1995, 83, 813-819). Rosiglitazone is used as a positive control in the hPPAR-γ assay. Wy-14643 and GW7647 is used as a positive control in the hPPAR-α assay. GW501516 is used as the positive control in the hPPAR-δ assay.

A further assay concerns the target T2, PPAR-alpha (Homo sapiens, UniProt Q07869).
T2 construct: expressed in transfected cells; host or cells: CV-1 cells
T2 sequence (Q07869 239-466 limits assumed): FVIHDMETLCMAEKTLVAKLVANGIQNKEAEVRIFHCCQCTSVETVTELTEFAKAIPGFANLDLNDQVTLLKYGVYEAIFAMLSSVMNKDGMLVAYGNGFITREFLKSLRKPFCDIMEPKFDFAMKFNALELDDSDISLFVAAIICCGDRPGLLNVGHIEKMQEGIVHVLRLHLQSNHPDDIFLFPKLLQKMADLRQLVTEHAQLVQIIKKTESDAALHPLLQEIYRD
In words: human PPAR-GAL4 chimera luciferase reporter assay in CV-1 cells, PPAR-alpha. On the procedure:
as §1, §2

A further assay addresses T3, PPAR-gamma (Homo sapiens, UniProt P37231).
T3 construct: expressed in transfected cells; host or cells: CV-1 cells
T3 sequence (P37231 238-503 limits assumed): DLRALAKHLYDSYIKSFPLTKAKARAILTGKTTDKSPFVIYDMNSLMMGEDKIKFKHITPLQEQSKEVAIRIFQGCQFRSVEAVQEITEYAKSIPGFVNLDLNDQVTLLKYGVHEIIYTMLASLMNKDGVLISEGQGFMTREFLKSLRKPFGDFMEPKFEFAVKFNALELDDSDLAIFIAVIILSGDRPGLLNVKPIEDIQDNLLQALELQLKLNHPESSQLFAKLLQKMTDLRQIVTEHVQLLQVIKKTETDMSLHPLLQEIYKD
The assay is described as follows: human PPAR-GAL4 chimera luciferase reporter assay in CV-1 cells, PPAR-gamma. As for the experimental part:
as §1, §2

Where [1] appears, read: Table 2, Examples 1-10, read-out: PPAR δ EC50.
Setting [2] is: Table 2, Examples 1-10, read-out: PPAR α EC50.
The mark [3] stands for this setting: Table 2, Examples 1-10, read-out: PPAR γ EC50.
[4] abbreviates: Table 3, Examples 11-25, read-out: PPAR delta (EC50).
Setting [5] is: Table 3, Examples 11-25, read-out: PPAR alpha (EC50).
[6] abbreviates: Table 3, Examples 11-25, read-out: PPAR gamma (EC50).

Turning to `Cc1nc(-c2ccc(C(F)(F)F)cc2)sc1COc1ccc2[nH]cc(CC(=O)O)c2c1` [Example 7, {5-[4-Methyl-2-(4-trifluoromethyl-phenyl)-thiazol-5-ylmethoxy]-1H-indol-3-yl}-acetic acid], the EC50 at PPAR-delta (setting [1]) was below 1 µM; on PPAR-alpha (setting [2]), above 10 µM; at PPAR-gamma (setting [3]), below 1 µM.
Regarding `Cc1nc(-c2ccc(C(F)(F)F)cc2)sc1CCN1CCc2ccc(OCC(=O)O)cc21` [Example 25, (1-{2-[4-Methyl-2-(4-trifluoromethyl-phenyl)-thiazol-5-yl]-ethyl}-2,3-dihydro-1H-indol-6-yloxy)-acetic acid], the EC50 is below 5 µM on PPAR-delta (setting [4]), 5 to 100 µM at PPAR-alpha (setting [5]) and 5 to 100 µM on PPAR-gamma (setting [6]).
For the molecule `Cc1nc(-c2ccc(C(F)(F)F)cc2)sc1COc1cccc2ccn(CC(=O)O)c12` [Example 6, {7-[4-methyl-2-(4-trifluoromethyl-phenyl)-thiazol-5-ylmethoxy]-indol-1-yl}-acetic acid], the EC50 on PPAR-delta (setting [1]), at PPAR-alpha (setting [2]) and on PPAR-gamma (setting [3]) was above 10 µM in each case.
Consider `Cc1nc(-c2ccc(C(F)(F)F)cc2)sc1CCN1CCc2cc(OCC(=O)O)ccc21` [Example 17, (1-{2-[4-Methyl-2-(4-trifluoromethyl-phenyl)-thiazol-5-yl]-ethyl}-2,3-dihydro-1H-indol-5-yloxy)-acetic acid], for which the EC50 at PPAR-delta (setting [4]), on PPAR-alpha (setting [5]) and at PPAR-gamma (setting [6]) was 5 to 100 µM in each case.
As for `Cc1nc(-c2ccc(C(F)(F)F)cc2)sc1CSc1cccc(CC(=O)O)c1` [Example 2, {3-[4-methyl-2-(4-trifluoromethyl-phenyl)-thiazol-5-ylmethylsulfanyl]-phenyl}-acetic acid], the EC50 at PPAR-delta (setting [1]) is below 1 µM; on PPAR-alpha (setting [2]), below 1 µM; at PPAR-gamma (setting [3]) it was 1 to 10 µM.
As to `Cc1nc(-c2ccc(C(F)(F)F)cc2)sc1Cn1ccc2cc(OCC(=O)O)ccc21` [Example 12, {1-[4-Methyl-2-(4-trifluoromethyl-phenyl)-thiazol-5-ylmethyl]-1H-indol-5-yloxy}-acetic acid], the EC50 at PPAR-delta (setting [4]), on PPAR-alpha (setting [5]) and at PPAR-gamma (setting [6]) was 5 to 100 µM each time.

The values above are taken from US20050203151A1, “Novel compounds, compositions and uses thereof for treatment of metabolic disorders and related conditions” (Kalypsys, Inc., priority 2003, published 2005).
